The values below come from patent US4252806A, “Triazoloquinolones” (Mead Johnson & Company, priority 1979, dated 1981).

Data set [1] is described as follows: Prevention of reserpine ptosis in mice (oral pretreatment). In kind it is in vivo. Conditions: Mus musculus, test drug oral (per os) before reserpine 2.0 mg./kg. intravenously.
Data set [2] is described as follows: Lethal toxicity (ALD50) and first signs of pharmacologic activity (ATD50) in mice. Conditions: mouse, in vivo, oral, groups of 10, given as part of ALD50/ATD50 ratio; for TD50: read-out: ATD50 (dose at which signs of pharmacologic activity are first evidenced). The method, then: In groups of 10 mice treated variously with geometrically increasing doses of test compound of from 125 mg./kg. to 2,000 mg./kg., the lethal toxicity (ALD50) and the dose at which signs of pharmacologic activity are first evidenced (ATD50) can be estimated. […] The ALD50 /ATD50 ratio (mg. per kg. body wt./mg. per kg. body wt.) for the compound of Procedure 4 is 2,000/125-250 and for that of Procedure 6 is >2,000/8-15.7. The ratio for trazodone is 940/2-4. Thus, the present substances have less than one-half the lethal toxicity of trazodone and from less than one-half to one-fiftieth the propensity for producing overt signs of physiological effect (ATD50) on oral administration to mice. More particularly, the present substances exert less of a depressant effect on the central nervous system as reflected by less deficit in motor coordination, less interference with normal motor activity, and less analgetic effect than trazodone. Laboratory test data with respect to these properties are arranged below.

A short description of data set [3]: Mouse, tail clip (analgetic). In kind it is in vivo. Conditions: oral. From the text: ^1 Bianchi, et al., Brit. J. of Pharmacology 9, 280 (1954).
Data set [4] can be described thus: Reduction of phenylquinone writhing in mice (analgetic). The class given is in vivo. The settings on record: Mus musculus, oral. The text has this: Reduction of phenylquinone
^2 Hendershot, et al., J. Pharmcol. & Exptl. Ther. 125, 237 (1959).
(An intraperitoneal irritant provokes the stretching counted in writhing tests.)

A short description of data set [5]: Reduction of spontaneous motor activity in mice. The class given is in vivo. Conditions: oral.
Data set [6] in a line: Rotorod method for motor incordination in mice. In kind it is in vivo. Conditions: oral. The text has this: Rotorod method for motor
^4 Kinnaird, et al., J. Pharmacol. & Exptl.
Cutting, et al., Archives Int. Pharmacodyn.
Background: Falling from the rotarod earlier than controls is read as motor impairment.

Data set [7] is described as follows: CNS depression in mice: antagonism of foot shock induced aggression. In kind it is in vivo. The settings on record: Mus musculus, oral. The text has this:
Antagonism of foot shock
^5 Tedeschi, et al., J. Pharmacol. & Exptl. Ther. 125, 28 (1959).

A short description of data set [8]: Inhibition of pernicious preening in mice (antipsychotic or analgetic). In kind it is in vivo. The settings on record: Mus musculus, oral, read-out: ED50, inhibition of pernicious preening (anti psychotic or analgetic). From the text: Inhibition of pernicious
psychotic or analgetic)^6
^6 Wilfon, et al., Federation Proceedings 19, 21 (1960).

A short description of data set [9]: Suppression of conditioned avoidance response. In kind it is in vivo. Conditions: oral; for suppression of conditioned avoidance response, activity in words: at 100 mg/kg. The text has this: |Suppression of conditioned |avoidance response | ^7 Albert, et al., Pharmacologist 4, 152 (1962).
The conditions of data set [10]: clinical use, vs imipramine; cited from earlier work.
For data set [11] the following is noted: various animal tests, U.S. Pat. No. 3,381,009; cited from earlier work.

Bounds are passed on as bounds.

As to `O=c1n(CCCN2CCN(c3cccc(Cl)c3)CC2)nc2ccc3ccccc3n12` [Procedure 4, 2-[3-[4-(3-Chlorophenyl)-1-piperazinyl]propyl]-1,2,4-triazolo[4,3-a]quinolin-3(2H)-one], the 50% effective dose (ED50) (as a rule, the midpoint of the dose-response relation) in data set [1] was 29 mg/kg; in data set [3], 200 mg/kg; in [4], 40.5 mg/kg; in [7] it was 54 mg/kg; in [8], 24 mg/kg. Moreover, the LD50 – broadly, the dose at which mortality reaches 50% – in data set [2] is 2000 mg/kg. The TD50 in [2] lay in the range of 125 to 250 mg/kg. In addition, the “AED-0.3, reduction of spontaneous motor activity” value in [5] is 80 mg/kg. Besides, the “Rotorod method for motor incordination, activity in words” value in [6] (at 800 (mg./kg.)) is “inactive”. In data set [9], the “suppression of conditioned avoidance response, activity in words” value is “inactive”.

On to `Cc1cc2nn(CCCN3CCN(c4cccc(Cl)c4)CC3)c(=O)n2c2ccccc12` [Procedure 6], for which the ED50 in [1] was found to be 27 mg/kg; in data set [4], 51.8 mg/kg; in data set [7], 36.5 mg/kg; in [8], 62 mg/kg. The LD50 in data set [2] is more than 2000 mg/kg. Moreover, the TD50 in data set [2] is 8 to 15.7 mg/kg. The “tail clip (analgetic), activity in words” value in [3] (at 200 (mg./kg.)) was “inactive”. In data set [5] (at 20, 40, & 80 (mg./kg.)), the “reduction of spontaneous motor activity, activity in words” value is “inactive”. Further, the “suppression of conditioned avoidance response, activity in words” value in data set [9] is “inactive”.

For `O=c1n(CCCN2CCN(c3cccc(Cl)c3)CC2)nc2ccccn12` [trazodone, 2-[3-[4-(3-chlorophenyl)-1-piperazinyl]propyl]-1,2,4-triazolo[4,3-a]pyridin-3(2H)-one, reference compound], the 50% effective dose (ED50) amounted to 36 mg/kg in data set [1]; 55.5 mg/kg in [3]; 21.8 mg/kg in [4]; 22.2 mg/kg in [7]; 43 mg/kg in data set [8]; 131 mg/kg in data set [9]. Besides, in data set [2], the LD50 is 940 mg/kg. The TD50 in data set [2] was 2 to 4 mg/kg; in data set [6] (mouse, in vivo, read-out: ED50, Rotorod method for motor incordination), 44.4 mg/kg. Also, the “AED-0.3, reduction of spontaneous motor activity” value in data set [5] was found to be 15.3 mg/kg. For the same molecule, the “clinical antidepressant effectiveness and side effects” value in data set [10] was “antidepressant equivalent in effectiveness to imipramine but with fewer side effects”. For the same molecule, the pharmacological actions result in data set [11] is “tranquilizing action, hypotensive action, and analgesic action”.
